Measured values published in ChEMBL document CHEMBL1221198 (Nat Chem Biol, 2007).

Tests used:
[1] = test system: HEK293; assay: Inhibition of RSK-mediated rpS6 phosphorylation at Ser236 residues in human PMA-stimulated HEK 293 cells at 30 uM after 1 hr by Western blotting; type: cell-based
[2] = test system: HEK293; assay: Inhibition of RSK-mediated rpS6 phosphorylation at Ser235 residues in human PMA-stimulated HEK 293 cells at 30 uM after 1 hr by Western blotting; type: cell-based
[3] = target: T1, Ribosomal protein S6 kinase alpha-3 (Homo sapiens, UniProt P51812); assay: Inhibition of His6-tagged RSK2 C-terminal domian expressed in Escherichia coli after 30 mins
[4] = target: T1, Ribosomal protein S6 kinase alpha-3; assay: Inhibition of PMA-stimulated RSK2 phosphorylation in HEK293 cells after 1 hr by Western blotting analysis; type: cell-based

T1 sequence (P51812 whole entry): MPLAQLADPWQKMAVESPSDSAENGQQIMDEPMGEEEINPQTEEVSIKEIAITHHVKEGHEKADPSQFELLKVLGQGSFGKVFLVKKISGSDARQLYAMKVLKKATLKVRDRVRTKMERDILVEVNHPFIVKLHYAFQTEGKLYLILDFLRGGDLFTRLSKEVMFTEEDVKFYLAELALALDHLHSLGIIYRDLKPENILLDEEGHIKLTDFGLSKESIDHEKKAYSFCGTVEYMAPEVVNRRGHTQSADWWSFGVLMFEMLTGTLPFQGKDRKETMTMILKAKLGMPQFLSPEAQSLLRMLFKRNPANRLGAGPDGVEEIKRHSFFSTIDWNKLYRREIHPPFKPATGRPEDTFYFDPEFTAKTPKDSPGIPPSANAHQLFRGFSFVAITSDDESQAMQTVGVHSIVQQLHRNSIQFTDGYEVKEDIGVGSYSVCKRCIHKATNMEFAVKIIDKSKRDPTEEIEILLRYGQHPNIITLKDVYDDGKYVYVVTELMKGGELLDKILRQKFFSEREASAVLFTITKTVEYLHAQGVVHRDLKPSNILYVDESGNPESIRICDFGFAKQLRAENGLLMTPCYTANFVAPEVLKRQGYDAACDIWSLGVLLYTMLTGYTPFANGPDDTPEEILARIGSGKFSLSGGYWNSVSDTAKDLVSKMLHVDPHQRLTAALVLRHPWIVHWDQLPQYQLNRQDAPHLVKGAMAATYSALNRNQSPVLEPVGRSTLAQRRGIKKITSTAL

SMILES	inhibition [1] [%]	inhibition [2] [%]	IC50 [3] [µM]	EC50 [4] [µM]
CO[C@H]1C[C@@H]2CC[C@@H](C)[C@@](O)(O2)C(=O)C(=O)N2CCCC[C@H]2C(=O)O[C@H]([C@H](C)C[C@@H]2CC[C@@H](O)[C@H](OC)C2)CC(=O)[C@H](C)/C=C(\C)[C@@H](O)[C@@H](OC)C(=O)[C@H](C)C[C@H](C)/C=C/C=C/C=C/1C	76	76	–	–
CC1=CC(C)=[N+]2C1=Cc1ccc(CCC(=O)NCCCCCC(=O)NCCCCNC(=O)OCCCn3c(C(=O)CF)c(-c4ccc(C)cc4)c4c(N)ncnc43)n1[B-]2(F)F	–	–	1.7	10
